Results published in patent US8618163B2, “Derivatives of cycloalkyl- and cycloalkenyl-1,2-dicarboxylic acid compounds having formyl peptide receptor like-1 (FPRL-1) agonist or antagonist activity” (Allergan, Inc., priority 2010, dated 2013).
Like-named read-outs stand apart in the source and are kept apart here.

Assays:
[1] = biological target: T1, FPR1 (Homo sapiens, UniProt P21462); assay: compound-induced calcium activity on FLIPR Tetra in HEK-Gqi5 cells stable expressing FPR1; format: cell-based; set-up: FPR1 (rel. eff.): scale not given here; details: for FPR1 (rel. eff.): relative efficacy
T1 construct: expressed in transfected cells; host or cells: HEK-Gqi5 (HEK cells with chimeric G protein Gqi5)
T1 sequence (P21462 1-350): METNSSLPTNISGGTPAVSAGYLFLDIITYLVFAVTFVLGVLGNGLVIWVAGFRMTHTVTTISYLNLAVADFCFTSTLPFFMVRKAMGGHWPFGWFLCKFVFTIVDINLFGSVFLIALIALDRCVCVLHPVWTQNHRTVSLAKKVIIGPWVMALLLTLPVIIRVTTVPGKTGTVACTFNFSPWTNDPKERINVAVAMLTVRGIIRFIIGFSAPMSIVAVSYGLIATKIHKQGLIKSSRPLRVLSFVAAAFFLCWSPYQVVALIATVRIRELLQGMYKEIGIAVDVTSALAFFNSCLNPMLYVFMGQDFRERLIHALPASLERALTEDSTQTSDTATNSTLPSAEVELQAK
Outline: (§1)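 FPRL1 tested in CHO-Gal6 cells and FPR1 in HEK-Gqi5 cells, both stably expressing receptor and plated the day before. Compound-induced calcium response measured on FLIPR Tetra at 0.61 to 10,000 nM. EC50 (nM) and efficacy reported.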

[2] = biological target: T2, FPRL1 (Homo sapiens, UniProt P25090); assay: compound-induced calcium activity on FLIPR Tetra in CHO-Gal6 cells stably expressing FPRL1; format: cell-based; details: for FPRL1 (rel. eff.): relative efficacy
T2 construct: expressed in transfected cells; host or cells: CHO-Gal6 (CHO cells with G alpha 16)
T2 sequence (P25090 1-351): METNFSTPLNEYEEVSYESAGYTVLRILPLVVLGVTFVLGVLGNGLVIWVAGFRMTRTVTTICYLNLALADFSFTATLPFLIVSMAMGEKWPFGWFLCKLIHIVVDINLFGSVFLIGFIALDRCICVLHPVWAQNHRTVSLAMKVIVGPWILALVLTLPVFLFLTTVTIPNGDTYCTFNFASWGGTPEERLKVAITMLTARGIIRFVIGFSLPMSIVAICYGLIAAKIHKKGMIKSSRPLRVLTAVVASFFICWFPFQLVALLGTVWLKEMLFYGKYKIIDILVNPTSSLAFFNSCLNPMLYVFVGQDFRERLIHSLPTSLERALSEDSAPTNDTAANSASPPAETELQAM
Outline: as §1

[3] = class symbol NA, read-out: FPR1 EC50 (NA = Not Active)
[4] = calcium, FLIPR Tetra, tested 0.61 to 10,000 nM, read-out: FPRL1 EC50
[5] = calcium, FLIPR Tetra, tested 0.61 to 10,000 nM, read-out: FPR1 EC50

Structure (SMILES) | EC50 [1, 3] [µM] | EC50 [2, 4] [µM] | FPRL1 (rel. eff.) ([2]; calcium, FLIPR Tetra) | EC50 ([1]; cells printed in μM, read-out: FPR1 EC50) [µM] | FPR1 (rel. eff.) ([1]; calcium, FLIPR Tetra) | EC50 ([2]; class symbol NA, read-out: FPRL1 EC50 (NA = Not Active)) [µM] | EC50 [1, 5] [µM]
Cc1cc(Br)cc(C)c1NC(=O)[C@@H]1[C@H](C(=O)O)[C@@H]2CC[C@H]1C21CC1 (racemic) [Compound 73, (+/−)-(1R,2S,3R,4S)-2-((4-Bromo-2,6-dimethylphenyl)carbamoyl)spiro[bicyclo[2.2.1]-heptane-7,1′-cyclopropane]-3-carboxylic Acid] | > 10 | 2.12 | 0.67 | – | – | – | –
O=C(Nc1ccccc1)[C@H]1[C@@H](C=NO)[C@H]2CC[C@@H]1C21CC1 (racemic) [Compound 94, (+/−)-(1S,2R,3S,4R)-3-((Hydroxyimino)methyl)-N-phenylspiro[bicyclo[2.2.1]heptane-7,1′-cyclopropane]-2-carboxamide] | > 10 | 2.83 | 0.49 | – | – | – | –
CC(=O)c1ccc(NC(=O)[C@H]2[C@@H](C(=O)O)[C@H]3CC[C@@H]2C32CC2)cc1 (racemic) [Compound 43, (+/−)-(1S,2R,3S,4R)-2-((4-Acetylphenyl)carbamoyl)spiro[bicyclo[2.2.1]heptane-7,1′-cyclopropane]-3-carboxylic Acid] | – | 0.049 | 0.71 | > 10 | 0.50 | – | –
O=C(OCc1ccccc1)[C@@H]1[C@H](C(=O)Nc2ccc(Br)cc2)[C@@H]2CC[C@H]1C21CC1 (racemic) [Compound 85, (+/−)-(1S,2R,3S,4R)-Benzyl 2-((4-bromophenyl)carbamoyl)spiro[bicyclo[2.2.1]heptane-7,1′-cyclopropane]-3-carboxylate] | > 10 | 2.14 | 0.88 | – | – | – | –
CC(C)NC(=O)[C@@H]1[C@H](C(=O)Nc2ccc(Br)cc2)[C@@H]2CC[C@H]1C21CC1 (racemic) [Compound 79, (+/−)-(1S,2R,3S,4R)—N^2-(4-Bromophenyl)-N^3-isopropylspiro[bicyclo[2.2.1]heptane-7,1′-cyclopropane]-2,3-dicarboxamide] | > 10 | 0.0066 | 1.0 | – | – | – | –
CCc1ccc(NC(=O)[C@H]2[C@@H](C(N)=O)[C@H]3CC[C@@H]2C3(C)C)cc1 (racemic) [Compound 57, (+/−)-(1S,2R,3S,4R)—N2-(4-Ethylphenyl)-7,7-dimethylbicyclo[2.2.1]heptane-2,3-dicarboxamide] | > 10 | 0.035 | 0.95 | – | – | – | –
O=C(O)[C@@H]1[C@H](C(=O)NNc2ccc(Br)cc2)[C@@H]2CC[C@H]1C21CC1 (racemic) [Compound 87, (+/−)-(1S,2R,3S,4R)-2-(2-(4-Bromophenyl)hydrazinecarbonyl)spiro[bicyclo[2.2.1]heptane-7,1′-cyclopropane]-3-carboxylic Acid] | > 10 | 0.456 | 0.89 | – | – | – | –
CC(C)OC(=O)[C@@H]1[C@H](C(=O)Nc2ccc(Br)cc2)[C@@H]2CC[C@H]1C21CC1 (racemic) [Compound 86, (+/−)-(1S,2R,3S,4R)-Isopropyl 2-((4-bromophenyl)carbamoyl)spiro[bicyclo[2.2.1]heptane-7,1′-cyclopropane]-3-carboxylate] | > 10 | 2.11 | 1.0 | – | – | – | –
CC1(C)[C@@H]2CC[C@H]1[C@@H](C(=O)Nc1ccc(Br)cc1)[C@H]2C(=O)O (racemic) [Compound 13, (+/−)-(1R,2S,3R,4S)-3-(4-Bromophenylcarbamoyl)-7,7-dimethylbicyclo[2.2.1]heptane-2-carboxylic Acid] | – | – | 0.85 | – | 0.33 | – | 0.639
CC(C)=C1C2CCC1C(C(=O)Nc1ccc(Br)cc1)C2C(=O)O (racemic) [Compound 24, (+/−)-(1S,2R,3S,4S)-3-(4-Bromophenylcarbamoyl)[bicyclo[2.2.1]heptane-7-propan-2-ylidene]-2-carboxylic Acid] | – | 0.164 | 0.89 | – | – | – | 8.3
CC(C)=C1[C@H]2C=C[C@@H]1[C@H](C(=O)O)[C@@H]2C(=O)Nc1ccc(Br)cc1 (racemic) [Compound 20, (+/−)-(1S,4R,5S,6R)-6-(4-Bromophenylcarbamoyl) [bicyclo[2.2.1]hept[2]ene-7-propan-2-ylidene]-5-carboxylic Acid] | > 10 | 0.03 | 0.96 | – | – | – | –
CS(=O)(=O)c1ccc(NC(=O)[C@H]2[C@@H](C(=O)O)[C@H]3CC[C@@H]2C32CC2)cc1 [Compound 45, (1R,2S,3R,4S)-3-((4-(Methylsulfonyl)phenyl)carbamoyl)spiro[bicyclo[2.2.1]heptane-7,1′-cyclopropane]-2-carboxylic Acid] | > 10 | 0.598 | 0.86 | – | – | – | –

Second part, the molecule after the results:

EC50 [1, 3] [µM] | EC50 [2, 4] [µM] | FPRL1 (rel. eff.) ([2]; calcium, FLIPR Tetra) | EC50 ([1]; cells printed in μM, read-out: FPR1 EC50) [µM] | FPR1 (rel. eff.) ([1]; calcium, FLIPR Tetra) | EC50 ([2]; class symbol NA, read-out: FPRL1 EC50 (NA = Not Active)) [µM] | EC50 [1, 5] [µM] | Structure (SMILES)
> 10 | 0.005 | 0.89 | – | – | – | – | NC(=O)[C@@H]1[C@H](C(=O)Nc2ccc(I)cc2)[C@@H]2CC[C@H]1C21CC1 (racemic) [Compound 62, (+/−)-(1S,2R,3S,4R)—N^2-(4-Iodophenyl)-[bicyclo[2.2.1]heptane-7,1′-cyclopropane]-2,3-dicarboxamide]
> 10 | 0.0381 | 1.0 | – | – | – | – | CCc1ccc(NC(=O)[C@H]2[C@@H](C(N)=O)[C@H]3CC[C@@H]2C32CC2)cc1 (racemic) [Compound 68, (+/−)-(1S,2R,3S,4R)—N^2-(4-Ethyl-phenyl)-spiro[bicyclo[2.2.1]heptane-7,1′-cyclopropane]-2,3-dicarboxamide]
> 10 | 0.0018 | 0.85 | – | – | – | – | NC(=O)C1C(C(=O)Nc2ccc(I)cc2)C2C=CC1C21CC1 (racemic) [Compound 50, (+/−)-(1R,4S,5R,6S)—N-5-(4-Iodophenyl)spiro[bicyclo[2.2.1]hept[2]ene-7,1′-cyclopropane]-5,6-dicarboxamide]
> 10 | – | – | – | – | > 10 | – | O=C(O)C1C(C(=O)Nc2ccc(O)cc2)C2C=CC1C21CC1 (racemic) [Compound 33, (+/−)-(1S,4R,5S,6R)-6-((4-Hydroxyphenyl)carbamoyl)spiro[bicyclo[2.2.1]hept[2]ene-7,1′-cyclopropane]-5-carboxylic Acid]
> 10 | < 0.0048 | 0.87 | – | – | – | – | NC(=O)[C@@H]1[C@H](C(=O)Nc2ccc(I)cc2)[C@@H]2CC[C@H]1C21CC1 (racemic) [Compound 51, (+/−)-(1S,2R,3S,4R)—N2-(4-Iodophenyl)spiro[bicyclo[2.2.1]heptane-7,1′-cyclopropane]-2,3-dicarboxamide]
> 10 | 0.0172 | 0.9 | – | – | – | – | CSc1ccc(NC(=O)[C@H]2[C@@H](C(N)=O)[C@H]3CC[C@@H]2C3(C)C)cc1 (racemic) [Compound 64, (+/−)-(1S,2R,3S,4R)-7,7-Dimethyl-N^2-(4-(methylthio)phenyl)bicyclo[2.2.1]heptane-2,3-dicarboxamide]
> 10 | 2.77 | 0.67 | – | – | – | – | NC(=O)c1ccc(NC(=O)C2C(C(=O)O)C3CCC2C32CC2)cc1 (racemic) [Compound 74, (+/−)-(1S,2R,3S,4R)-2-((4-Carbomoylphenyl)carbamoyl)spiro[bicyclo[2.2.1]-heptan-7,1′-cyclopropane]-3-carboxylic Acid]
> 10 | 0.616 | 0.70 | – | – | – | – | O=C(O)C1C(C(=O)Nc2ccc(Cl)c(Cl)c2)C2C=CC1C21CC1 (racemic) [Compound 28, (+/−)-(1S,4R,5S,6R)-6-((3,4-Dichlorophenyl)carbamoyl)spiro[bicyclo[2.2.1]hept[2]-ene-7,1′-cyclopropane]-5-carboxylic Acid]
> 10 | 0.187 | 0.72 | – | – | – | – | CC(C)OC(=O)C1C(C(=O)Nc2ccc(I)cc2)C2C=CC1C21CC1 (racemic) [Compound 18, Iso-propyl(+/−)-(1S,4R,5S,6R)-6-(4-Iodophenylcarbamoyl)spiro[bicyclo[2.2.1]hept[2]ene-7,1′-cyclopropane]-5-carboxylate]
> 10 | 0.0077 | 0.87 | – | – | – | – | NC(=O)C1C(C(=O)Nc2ccc(I)cc2)C2C=CC1C21CC1 (racemic) [Compound 69, (+/−)-(1R,4S,5R,6S)—N^5-(4-Iodophenyl)spiro[bicyclo[2.2.1]hept[2]ene-7,1′-cyclopropane]-5,6-dicarboxamide]
